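GI50: concentration for 50% inhibition of growth. TGI marks complete inhibition of growth.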
Tests used:
Assay in all cases: NCI tumour cell line growth inhibition, 384-well format
UO-31 renal = system: UO-31 renal
UACC-257 melanoma = system: UACC-257 melanoma
NCI-H460 NSCLC = system: NCI-H460 NSCLC
SF-539 CNS = system: SF-539 CNS
NCI-H322M lung = system: NCI-H322M lung
ACHN renal = system: ACHN renal
SF-295 CNS = system: SF-295 CNS
A549 NSCLC = system: A549 NSCLC
HOP-92 NSCLC = system: HOP-92 NSCLC
NCI/ADR-RES ovarian = system: NCI/ADR-RES ovarian
M14 melanoma = system: M14 melanoma
SW-620 colon = system: SW-620 colon
MALME-3M melanoma = system: MALME-3M melanoma
TK-10 renal = system: TK-10 renal
EKVX NSCLC = system: EKVX NSCLC
HS 578T breast = system: HS 578T breast
MDA-MB-435 melanoma = system: MDA-MB-435 melanoma
SF-268 CNS = system: SF-268 CNS
HT29 colon = system: HT29 colon
PC-3 prostate = system: PC-3 prostate
786-0 renal = system: 786-0 renal
OVCAR-4 ovarian = system: OVCAR-4 ovarian
SK-MEL-5 melanoma = system: SK-MEL-5 melanoma
NCI-H522 lung = system: NCI-H522 lung
COLO 205 colon = system: COLO 205 colon
SK-OV-3 ovarian = system: SK-OV-3 ovarian
RPMI-8226 leukemia = system: RPMI-8226 leukemia
OVCAR-8 ovarian = system: OVCAR-8 ovarian
MCF7 breast = system: MCF7 breast
HCT-116 colon = system: HCT-116 colon
NCI-H226 lung = system: NCI-H226 lung
CCRF-CEM leukemia = system: CCRF-CEM leukemia
MOLT-4 leukemia = system: MOLT-4 leukemia
HL-60(TB) leukemia = system: HL-60(TB) leukemia
UACC-62 melanoma = system: UACC-62 melanoma
SNB-75 CNS = system: SNB-75 CNS
HCT-15 colon = system: HCT-15 colon
KM12 colon = system: KM12 colon
T-47D breast = system: T-47D breast
OVCAR-5 ovarian = system: OVCAR-5 ovarian
BT-549 breast = system: BT-549 breast
K-562 leukemia = system: K-562 leukemia
CAKI-1 renal = system: CAKI-1 renal
OVCAR-3 ovarian = system: OVCAR-3 ovarian
RXF 393 renal = system: RXF 393 renal
HOP-62 NSCLC = system: HOP-62 NSCLC
SN12C renal = system: SN12C renal
LOX IMVI melanoma = system: LOX IMVI melanoma
SNB-19 CNS = system: SNB-19 CNS
HCC-2998 colon = system: HCC-2998 colon
A498 renal = system: A498 renal
NCI-H23 lung = system: NCI-H23 lung
U251 glioblastoma = system: U251 glioblastoma
SK-MEL-28 melanoma = system: SK-MEL-28 melanoma
IGROV1 ovarian = system: IGROV1 ovarian
MDA-MB-468 breast = system: MDA-MB-468 breast
MDA-MB-231 breast = system: MDA-MB-231 breast
DU-145 prostate = system: DU-145 prostate

CN(C(=O)c1ccc(F)cc1C(F)(F)F)C1CCN(c2nnc(-c3ccnn3C)c3ccccc23)CC1
GI50 (UO-31 renal): 58.7 µM | TGI (UO-31 renal): > 100 µM | GI50 (UACC-257 melanoma): 32 µM | TGI (UACC-257 melanoma): > 100 µM | GI50 (NCI-H460 NSCLC): 35.7 µM | TGI (NCI-H460 NSCLC): > 100 µM | GI50 (SF-539 CNS): > 100 µM | TGI (SF-539 CNS): > 100 µM | GI50 (NCI-H322M lung): 28 µM | TGI (NCI-H322M lung): > 100 µM | GI50 (ACHN renal): > 100 µM | TGI (ACHN renal): > 100 µM | GI50 (SF-295 CNS): > 100 µM | TGI (SF-295 CNS): > 100 µM | GI50 (A549 NSCLC): 44.8 µM | TGI (A549 NSCLC): > 100 µM | GI50 (HOP-92 NSCLC): 48.3 µM | TGI (HOP-92 NSCLC): > 100 µM | GI50 (NCI/ADR-RES ovarian): 33.3 µM | TGI (NCI/ADR-RES ovarian): > 100 µM | GI50 (M14 melanoma): 58.1 µM | TGI (M14 melanoma): > 100 µM | GI50 (SW-620 colon): > 100 µM | TGI (SW-620 colon): > 100 µM | GI50 (MALME-3M melanoma): 65 µM | TGI (MALME-3M melanoma): > 100 µM | GI50 (TK-10 renal): > 100 µM | TGI (TK-10 renal): > 100 µM | GI50 (EKVX NSCLC): 21.5 µM | TGI (EKVX NSCLC): > 100 µM | GI50 (HS 578T breast): > 100 µM | TGI (HS 578T breast): > 100 µM | GI50 (MDA-MB-435 melanoma): 63.1 µM | TGI (MDA-MB-435 melanoma): > 100 µM | GI50 (SF-268 CNS): 13.9 µM | TGI (SF-268 CNS): 71 µM | GI50 (HT29 colon): 76.6 µM | TGI (HT29 colon): > 100 µM | GI50 (PC-3 prostate): 44.5 µM | TGI (PC-3 prostate): > 100 µM | GI50 ([…]-0 renal): > 100 µM | TGI (786-0 renal): > 100 µM | GI50 (OVCAR-4 ovarian): 67.4 µM | TGI (OVCAR-4 ovarian): > 100 µM | GI50 (SK-MEL-5 melanoma): 8.15 µM | TGI (SK-MEL-5 melanoma): 21.2 µM | GI50 (NCI-H522 lung): 35.5 µM | TGI (NCI-H522 lung): > 100 µM | GI50 (COLO 205 colon): 42.9 µM | TGI (COLO 205 colon): > 100 µM | GI50 (SK-OV-3 ovarian): 89.2 µM | TGI (SK-OV-3 ovarian): > 100 µM | GI50 (RPMI-8226 leukemia): 22.5 µM | TGI (RPMI-8226 leukemia): > 100 µM | GI50 (OVCAR-8 ovarian): 34.7 µM | TGI (OVCAR-8 ovarian): > 100 µM | GI50 (MCF7 breast): 29.9 µM | TGI (MCF7 breast): > 100 µM | GI50 (HCT-116 colon): 47.7 µM | TGI (HCT-116 colon): > 100 µM | GI50 (NCI-H226 lung): 32.1 µM | TGI (NCI-H226 lung): > 100 µM | GI50 (CCRF-CEM leukemia): 12.9 µM | TGI (CCRF-CEM leukemia): 44.8 µM | GI50 (MOLT-4 leukemia): 13 µM | TGI (MOLT-4 leukemia): 26.4 µM | GI50 (HL-60(TB) leukemia): 18.7 µM | TGI (HL-60(TB) leukemia): 43.9 µM | GI50 (UACC-62 melanoma): > 100 µM | TGI (UACC-62 melanoma): > 100 µM | GI50 (SNB-75 CNS): 58.5 µM | TGI (SNB-75 CNS): > 100 µM | GI50 (HCT-15 colon): 44.4 µM | TGI (HCT-15 colon): > 100 µM | GI50 (KM12 colon): > 100 µM | TGI (KM12 colon): > 100 µM | GI50 (T-47D breast): 2730 nM | TGI (T-47D breast): 12.5 µM | GI50 (OVCAR-5 ovarian): > 100 µM | TGI (OVCAR-5 ovarian): > 100 µM | GI50 (BT-549 breast): 26.7 µM | TGI (BT-549 breast): > 100 µM | GI50 (K-562 leukemia): 15.1 µM | TGI (K-562 leukemia): > 100 µM | GI50 (CAKI-1 renal): 47.6 µM | TGI (CAKI-1 renal): > 100 µM | GI50 (OVCAR-3 ovarian): 85.6 µM | TGI (OVCAR-3 ovarian): > 100 µM | GI50 (RXF 393 renal): 20.9 µM | TGI (RXF 393 renal): 74.4 µM | GI50 (HOP-62 NSCLC): 13.9 µM | TGI (HOP-62 NSCLC): > 100 µM | GI50 (SN12C renal): > 100 µM | TGI (SN12C renal): > 100 µM | GI50 (LOX IMVI melanoma): 46.3 µM | TGI (LOX IMVI melanoma): > 100 µM | GI50 (SNB-19 CNS): 89.5 µM | TGI (SNB-19 CNS): > 100 µM | GI50 (HCC-2998 colon): 22.4 µM | TGI (HCC-2998 colon): > 100 µM | GI50 (A498 renal): 46.7 µM | TGI (A498 renal): > 100 µM | GI50 (NCI-H23 lung): 30.1 µM | TGI (NCI-H23 lung): > 100 µM | GI50 (U251 glioblastoma): 54.3 µM | TGI (U251 glioblastoma): > 100 µM | GI50 (SK-MEL-28 melanoma): > 100 µM | TGI (SK-MEL-28 melanoma): > 100 µM | GI50 (IGROV1 ovarian): > 100 µM | TGI (IGROV1 ovarian): > 100 µM | GI50 (MDA-MB-468 breast): 3.8 µM | TGI (MDA-MB-468 breast): 21.3 µM | GI50 (MDA-MB-231 breast): 47 µM | TGI (MDA-MB-231 breast): > 100 µM | GI50 (DU-145 prostate): 86.2 µM | TGI (DU-145 prostate): > 100 µM

From PubChem BioAssay (NCI)
